Data reported in US11986532B2 (Arvinas Operations, Inc., priority 2021, dated 2024).
Where two headings read alike, the source gives them in different places.

Target: T1, BCL6 (Homo sapiens, UniProt P41182)
T1 construct: endogenous in cells; host or cells: T47D breast cancer epithelial cells
Assay: Immunofluorescence protocol for high content imaging of BCL6 (degradation) in T47D cells, 3 days compound treatment
Type: cell-based
Settings: for Dmax: read-out: Mean Dmax (%)** category; for DC50: read-out: Mean DC50 (nM)* category
Method in brief: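 Remaining BCL6 in breast cancer T47D cells was measured by high-content immunofluorescence imaging after 3 days of treatment with serially diluted compound (top 0.1 or 1 μM). Nuclei were stained with Hoechst and cells with CellMask.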

[1] = T47D cells, 3 days compound treatment

| DC50 [1] | Dmax [1] | Structure (SMILES) | Dmax (T47D) | DC50 |
| --- | --- | --- | --- | --- |
| – | – | CNC(=O)COc1cc2cc(Nc3nc(N4CCC(O[C@H]5C[C@H](N6CCCC7(CCN(c8ccc9c(c8)C(=O)N(C8CCC(=O)NC8=O)C9=O)C7)C6)C5)CC4)ncc3Cl)ccc2n(C(C)C)c1=O (stereo partly shown) [Compound 355, 2-({6-[(5-chloro-2-{4-[(1r,3r)-3-{2-[2-(2,6-dioxopiperidin-3-yl)-1,3-dioxo-2,3-dihydro-1H-isoindol-5-yl]-2,7-diazaspiro[4.5]decan-7-yl}cyclobutoxy]piperidin-1-yl}pyrimidin-4-yl)amino]-2-oxo-1-(propan-2-yl)-1,2-dihydroquinolin-3-yl}oxy)-N-methylacetamide] | ≥ 70% | < 10 nM |
| – | – | CNC(=O)COc1cc2cc(Nc3nc(N4CCC(CN5CCC6(CN(c7cccc8c7C(=O)N(C7CCC(=O)NC7=O)C8=O)C6)C(F)C5)CC4)ncc3Cl)ccc2n(C(C)C)c1=O (stereo not shown) [Compound 325, 2-{[6-({5-chloro-2-[4-({2-[2-(2,6-dioxopiperidin-3-yl)-1,3-dioxo-2,3-dihydro-1H-isoindol-4-yl]-5-fluoro-2,7-diazaspiro[3.5]nonan-7-yl}methyl)piperidin-1-yl]pyrimidin-4-yl}amino)-2-oxo-1-(propan-2-yl)-1,2-dihydroquinolin-3-yl]oxy}-N-methylacetamide] | 50 to 70% | < 10 nM |
| ≥ 100 nM | – | CNC(=O)COc1cc2cc(Nc3nc(N4CCC[C@H](COc5cccc6c5C(=O)N(C5CCC(=O)NC5=O)C6=O)C4)ncc3Cl)ccc2n(CCN(C)C)c1=O (stereo partly drawn) [Compound 141, 2-{[6-({5-chloro-2-[(3S)-3-({[2-(2,6-dioxopiperidin-3-yl)-1,3-dioxo-2,3-dihydro-1H-isoindol-4-yl]oxy}methyl)piperidin-1-yl]pyrimidin-4-yl}amino)-1-[2-(dimethylamino)ethyl]-2-oxo-1,2-dihydroquinolin-3-yl]oxy}-N-methylacetamide] | – | – |
| – | – | CNC(=O)COc1cc2cc(Nc3nc(N4CCC(O[C@H]5C[C@H](N6CCC(c7cc(OC)c8c(c7F)CN([C@H]7CCC(=O)NC7=O)C8=O)CC6)C5)CC4)ncc3Cl)ccc2n(C(C)C)c1=O [Compound 407, 2-({6-[(5-chloro-2-{4-[(1r,3r)-3-(4-{2-[(3S)-2,6-dioxopiperidin-3-yl]-4-fluoro-7-methoxy-1-oxo-2,3-dihydro-1H-isoindol-5-yl}piperidin-1-yl)cyclobutoxy]piperidin-1-yl}pyrimidin-4-yl)amino]-2-oxo-1-(propan-2-yl)-1,2-dihydroquinolin-3-yl}oxy)-N-methylacetamide] | ≥ 70% | < 10 nM |
| – | – | CNC(=O)COc1cc2cc(Nc3nc(N4CCC(O[C@H]5C[C@H](N6CCC(c7cc8c(cc7OC)C(=O)N(C7CCC(=O)NC7=O)C8)CC6)C5)CC4)ncc3Cl)ccc2n(C(C)C)c1=O (stereo partly shown) [Compound 348, 2-({6-[(5-chloro-2-{4-[(1r,3r)-3-{4-[2-(2,6-dioxopiperidin-3-yl)-6-methoxy-1-oxo-2,3-dihydro-1H-isoindol-5-yl]piperidin-1-yl}cyclobutoxy]piperidin-1-yl}pyrimidin-4-yl)amino]-2-oxo-1-(propan-2-yl)-1,2-dihydroquinolin-3-yl}oxy)-N-methylacetamide] | ≥ 70% | < 10 nM |
| < 10 nM | 50 to 70% | CNC(=O)COc1cc2cc(Nc3nc(N4CCC5(CCN(CC6(F)CCN(c7c(F)ccc8c7CN(C7CCC(=O)NC7=O)C8=O)CC6)CC5)CC4)ncc3Cl)ccc2n(C(C)C)c1=O (stereo not shown) [Compound 96, 2-{[6-({5-chloro-2-[9-({1-[2-(2,6-dioxopiperidin-3-yl)-5-fluoro-1-oxo-2,3-dihydro-1H-isoindol-4-yl]-4-fluoropiperidin-4-yl}methyl)-3,9-diazaspiro[5.5]undecan-3-yl]pyrimidin-4-yl}amino)-2-oxo-1-(propan-2-yl)-1,2-dihydroquinolin-3-yl]oxy}-N-methylacetamide] | – | – |
| – | – | CNC(=O)COc1cc2cc(Nc3nc(N4CCC(CN5CCC6(CC5)CCN6c5ccc6c(c5)C(=O)N(C5CCC(=O)NC5=O)C6=O)CC4)ncc3Cl)ccc2n(C(C)C)c1=O (stereo not shown) [Compound 335, 2-{[6-({5-chloro-2-[4-({1-[2-(2,6-dioxopiperidin-3-yl)-1,3-dioxo-2,3-dihydro-1H-isoindol-5-yl]-1,7-diazaspiro[3.5]nonan-7-yl}methyl)piperidin-1-yl]pyrimidin-4-yl}amino)-2-oxo-1-(propan-2-yl)-1,2-dihydroquinolin-3-yl]oxy}-N-methylacetamide] | ≥ 70% | < 10 nM |
| 10 to 50 nM | 50 to 70% | CNC(=O)COc1cc2cc(Nc3nc(N4CCC(CN5CCC6(CC5)CC(c5ccc7c(c5)C(=O)N(C5CCC(=O)NC5=O)C7=O)C6)CC4)ncc3Cl)ccc2n(C(C)C)c1=O (stereo not shown) [Compound 150, 2-{[6-({5-chloro-2-[4-({2-[2-(2,6-dioxopiperidin-3-yl)-1,3-dioxo-2,3-dihydro-1H-isoindol-5-yl]-7-azaspiro[3.5]nonan-7-yl}methyl)piperidin-1-yl]pyrimidin-4-yl}amino)-2-oxo-1-(propan-2-yl)-1,2-dihydroquinolin-3-yl]oxy}-N-methylacetamide] | – | – |
| < 10 nM | 50 to 70% | CNC(=O)COc1cc2cc(Nc3nc(N4CCC(OC5CN([C@H]6CC[C@H](c7ccc8c(c7Cl)CN(C7CCC(=O)NC7=O)C8=O)CC6)C5)CC4)ncc3Cl)ccc2n(C(C)C)c1=O (stereo partly shown) [Compound 185] | – | – |
| – | – | CNC(=O)COc1cc2cc(Nc3nc(N4CCC(O[C@H]5C[C@H](N6CCN(CC7CCN(c8ccc9c(c8F)CN(C8CCC(=O)NC8=O)C9=O)CC7)CC6)C5)CC4)ncc3Cl)ccc2n(C(C)C)c1=O (stereo partly shown) [Compound 286, 2-({6-[(5-chloro-2-{4-[(1r,3r)-3-[4-({1-[2-(2,6-dioxopiperidin-3-yl)-4-fluoro-1-oxo-2,3-dihydro-1H-isoindol-5-yl]piperidin-4-yl}methyl)piperazin-1-yl]cyclobutoxy]piperidin-1-yl}pyrimidin-4-yl)amino]-2-oxo-1-(propan-2-yl)-1,2-dihydroquinolin-3-yl}oxy)-N-methylacetamide] | 50 to 70% | < 10 nM |
| < 10 nM | 50 to 70% | CNC(=O)COc1cc2cc(Nc3nc(N4CCC(CN5CCC6(CN(c7ccc8c(c7)C(=O)N(C7CCC(=O)NC7=O)C8=O)C6)C(F)(F)C5)CC4)ncc3Cl)ccc2n(C(C)C)c1=O (stereo not shown) [Compound 38, 2-{[6-({5-chloro-2-[4-({2-[2-(2,6-dioxopiperidin-3-yl)-1,3-dioxo-2,3-dihydro-1H-isoindol-5-yl]-5,5-difluoro-2,7-diazaspiro[3.5]nonan-7-yl}methyl)piperidin-1-yl]pyrimidin-4-yl}amino)-2-oxo-1-(propan-2-yl)-1,2-dihydroquinolin-3-yl]oxy}-N-methylacetamide] | – | – |
| – | – | CNC(=O)COc1cc2c(F)c(Nc3nc(N4CCC(CN5CCC6(CC5)CC5(CN(c7ccc8c(c7)CN(C7CCC(=O)NC7=O)C8=O)C5)C6)CC4)ncc3Cl)ccc2n(C(C)C)c1=O (stereo not shown) [Compound 421, 2-{[6-({5-chloro-2-[4-({2-[2-(2,6-dioxopiperidin-3-yl)-1-oxo-2,3-dihydro-1H-isoindol-5-yl]-2,9-diazadispiro [3.1.56.14]dodecan-9-yl}methyl)piperidin-1-yl]pyrimidin-4-yl}amino)-5-fluoro-2-oxo-1-(propan-2-yl)-1,2-dihydroquinolin-3-yl]oxy}-N-methylacetamide] | ≥ 70% | < 10 nM |
| – | – | CNC(=O)COc1cc2cc(Nc3cc(N4CCC(CN5CCC6(CC5)CN(c5ccc7c(c5)CN(C5CCC(=O)NC5=O)C7=O)C6(C)C)CC4)ncc3Cl)ccc2n(C(C)C)c1=O (stereo not shown) [Compound 233, 2-{[6-({5-chloro-2-[4-({2-[2-(2,6-dioxopiperidin-3-yl)-1-oxo-2,3-dihydro-1H-isoindol-5-yl]-1,1-dimethyl-2,7-diazaspiro[3.5]nonan-7-yl}methyl)piperidin-1-yl]pyridin-4-yl}amino)-2-oxo-1-(propan-2-yl)-1,2-dihydroquinolin-3-yl]oxy}-N-methylacetamide] | 50 to 70% | < 10 nM |
| – | – | CNC(=O)COc1cc2cc(Nc3nc(N4CCC(O[C@H]5C[C@H](N6CCN(c7cc8c(cc7OC)C(=O)N(C7CCC(=O)NC7=O)C8=O)CC6)C5)CC4)ncc3Cl)ccc2n(C(C)C)c1=O (stereo partly shown) [Compound 423, 2-({6-[(5-chloro-2-{4-[(1r,3r)-3-{4-[2-(2,6-dioxopiperidin-3-yl)-6-methoxy-1,3-dioxo-2,3-dihydro-1H-isoindol-5-yl]piperazin-1-yl}cyclobutoxy]piperidin-1-yl}pyrimidin-4-yl)amino]-2-oxo-1-(propan-2-yl)-1,2-dihydroquinolin-3-yl}oxy)-N-methylacetamide] | ≥ 70% | < 10 nM |
| – | – | CNC(=O)COc1cc2cc(Nc3nc(N4CCC(O[C@H]5C[C@H](N6CCC7(CN(c8ccc9c(c8)C(=O)N(C8CCC(=O)NC8=O)C9=O)C7)C6)C5)CC4)ncc3Cl)ccc2n(C(C)C)c1=O (stereo partly shown) [Compound 338, 2-({6-[(5-chloro-2-{4-[(1r,3r)-3-{2-[2-(2,6-dioxopiperidin-3-yl)-1,3-dioxo-2,3-dihydro-1H-isoindol-5-yl]-2,6-diazaspiro[3.4]octan-6-yl}cyclobutoxy]piperidin-1-yl}pyrimidin-4-yl)amino]-2-oxo-1-(propan-2-yl)-1,2-dihydroquinolin-3-yl}oxy)-N-methylacetamide] | ≥ 70% | 10 to 50 nM |

| Structure (SMILES) | DC50 [1] | Dmax [1] | Dmax (T47D) | DC50 |
| --- | --- | --- | --- | --- |
| CNC(=O)COc1cc2cc(Nc3nc(N4CCC(O[C@H]5C[C@@H](N6CCC(c7ccc8c(c7)C(=O)N(C7CCC(=O)NC7=O)C8=O)CC6)C5)CC4)ncc3Cl)ccc2n(C(C)C)c1=O (stereo partly shown) [Compound 153, 2-({6-[(5-chloro-2-{4-[(1s,3s)-3-{4-[2-(2,6-dioxopiperidin-3-yl)-1,3-dioxo-2,3-dihydro-1H-isoindol-5-yl]piperidin-1-yl}cyclobutoxy]piperidin-1-yl}pyrimidin-4-yl)amino]-2-oxo-1-(propan-2-yl)-1,2-dihydroquinolin-3-yl}oxy)-N-methylacetamide] | 50 to 100 nM | < 50% | – | – |
